According to the supplement of paper PMC10627819:

Experiments:
S. aureus DSM 20231 = test: Bliss interaction score (quartile over a dose matrix) (fitness difference); higher = more antagonism (negative = synergy)
Procedure, shortened: (§1)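 Fitness here means normalised growth, inferred for single drugs from the combination data. Growth was OD595 at entry into stationary phase, divided by the plate's robust no-drug mean and capped at 1. The Bliss score is observed minus expected fitness, with the expectation being the product, and its quartiles span technical, biological and donor/recipient replicates.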

S. pneumoniae D39V [1] = test: as above
Procedure, shortened: as §1

B. subtilis 168 = test: as above
Procedure, shortened: as §1

S. aureus Newman = test: as above
Procedure, shortened: as §1

S. pneumoniae D39V [2] = test: fitness (endpoint OD595 vs no drug) (fraction); higher = more growth
Procedure, shortened: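 Fitness expresses the optical density reached at the stationary-phase transition as a fraction of the robust mean of no-drug control wells. It is capped at 1. Measurements were OD595 every 30 min for 14 h at 37 °C after inoculation of 384-well plates at OD595 0.01 (30 µl, or 55 µl for S. pneumoniae), minus the first reading.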
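Throughout, for Bliss interaction score (quartile over a dose matrix): first quartile when negative (synergy) and third quartile when positive (antagonism).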
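Throughout, for fitness (endpoint OD595 vs no drug): OD595 on entry to stationary phase over no-drug wells; at most 1.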

CC[C@H]1OC(=O)[C@H](C)[C@@H](O[C@H]2C[C@@](C)(OC)[C@@H](O)[C@H](C)O2)[C@H](C)[C@@H](O[C@@H]2O[C@H](C)C[C@H](N(C)C)[C@H]2O)[C@](C)(OC)C[C@@H](C)C(=O)[C@H](C)[C@@H](O)[C@]1(C)O [Clarithromycin] + CN(C)c1cc(NC(=O)CNC(C)(C)C)c(O)c2c1C[C@H]1C[C@H]3[C@H](N(C)C)C(O)=C(C(N)=O)C(=O)[C@@]3(O)C(O)=C1C2=O [Tigecycline]
Conditions | Bliss interaction score
B. subtilis 168 | 0.0852
S. aureus DSM 20231 | 0.0343
S. aureus Newman | -0.0401
S. pneumoniae D39V [1] | -0.0848

fitness, S. pneumoniae D39V [2], one replicate
Conditions | first compound 0.007812 µg/mL | first compound 0.01562 µg/mL | first compound 0.03125 µg/mL
partner 0.65 µg/mL | 0.848 | 0.757 | 0.646
partner 1.3 µg/mL | 0.813 | 0.749 | 0.633
partner 2.6 µg/mL | 0.815 | 0.747 | 0.619

fitness, S. pneumoniae D39V [2]
Conditions | first compound 0.0625 µg/mL | first compound 0.07 µg/mL | first compound 0.125 µg/mL | first compound 0.14 µg/mL | first compound 0.25 µg/mL | first compound 0.28 µg/mL
partner 0.325 µg/mL | – | 0.111 | – | 0.071 | – | 0.0539
partner 0.65 µg/mL | 0.589 | 0.0865 | 0.253 | 0.0638 | 0.113 | 0.0627
partner 1.3 µg/mL | 0.506 | 0.0861 | 0.213 | 0.0727 | 0.103 | 0.068
partner 2.6 µg/mL | 0.494 | – | 0.198 | – | 0.119 | –

O=C(O[C@@H]1Cc2c(O)cc(O)cc2O[C@@H]1c1cc(O)c(O)c(O)c1)c1cc(O)c(O)c(O)c1 [EGCG] + O=C1CN(/N=C/c2ccc([N+](=O)[O-])o2)C(=O)N1 [Nitrofurantoin]
Conditions | Bliss interaction score
B. subtilis 168 | 0.106
S. aureus DSM 20231 | 0.103
S. aureus Newman | 0.0864
S. pneumoniae D39V [1] | 0.0733

fitness, S. pneumoniae D39V [2]
Conditions | partner 1.285 µg/mL | partner 2 µg/mL | partner 2.57 µg/mL | partner 4 µg/mL | partner 8 µg/mL
first compound 12.5 µg/mL | 0.914 | 0.858 | 0.938 | 0.832 | 0.558
first compound 25 µg/mL | 0.949 | 0.878 | 0.924 | 0.891 | 0.571
first compound 50 µg/mL | 0.954 | ≥ 1 | 0.951 | 0.802 | 0.566

S. pneumoniae D39V [2], partner 5.14 µg/mL, one replicate
Conditions | fitness
first compound 12.5 µg/mL | 0.917
first compound 25 µg/mL | 0.901
first compound 50 µg/mL | 0.921
